In PubChem BioAssay (NCI):
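All cell lines were grown in 96-well plates and treated with compound for 48 hours. At the GI50, growth is halved. At the TGI there is no net growth.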

Tests used:
Experiment in all cases: NCI tumour cell line growth inhibition, 48 h
[1] = tested on: NCI-H23 lung
[2] = tested on: NCI-H460 lung
[3] = tested on: NCI-H522 lung
[4] = tested on: NCI/ADR-RES ovarian
[5] = tested on: OVCAR-3 ovarian
[6] = tested on: OVCAR-4 ovarian
[7] = tested on: OVCAR-5 ovarian
[8] = tested on: OVCAR-8 ovarian
[9] = tested on: PC-3 prostate
[10] = tested on: RPMI-8226 leukemia
[11] = tested on: RXF 393 renal
[12] = tested on: SF-268 CNS
[13] = tested on: SF-295 CNS
[14] = tested on: SF-539 CNS
[15] = tested on: SK-MEL-2 melanoma
[16] = tested on: SK-MEL-28 melanoma
[17] = tested on: SK-MEL-5 melanoma
[18] = tested on: SK-OV-3 ovarian
[19] = tested on: SN12C renal
[20] = tested on: SNB-19 CNS
[21] = tested on: SNB-75 CNS
[22] = tested on: SR leukemia
[23] = tested on: SW-620 colon
[24] = tested on: T-47D breast
[25] = tested on: TK-10 renal
[26] = tested on: U251 CNS
[27] = tested on: UACC-257 melanoma
[28] = tested on: UACC-62 melanoma
[29] = tested on: UO-31 renal

COc1ccc(/C=N/C2=C(C#N)C(c3ccccc3)c3c(ccc4ccccc34)O2)cc1 (stereo not drawn)
GI50 [1]: 3.41 µM
TGI [1]: > 100 µM
GI50 [2]: 1.37 µM
TGI [2]: 47.1 µM
GI50 [3]: 0.388 µM
TGI [3]: 37.6 µM
GI50 [4]: 0.916 µM
TGI [4]: > 100 µM
GI50 [5]: 0.464 µM
TGI [5]: 10.2 µM
GI50 [6]: 8.75 µM
TGI [6]: > 100 µM
GI50 [7]: 4.53 µM
TGI [7]: 37.7 µM
GI50 [8]: 4.07 µM
TGI [8]: > 100 µM
GI50 [9]: 1.22 µM
TGI [9]: 18.8 µM
GI50 [10]: 2.66 µM
TGI [10]: 35.3 µM
GI50 [11]: 1.49 µM
TGI [11]: 7.19 µM
GI50 [12]: 2.85 µM
TGI [12]: 65.3 µM
GI50 [13]: 0.482 µM
TGI [13]: 11.8 µM
GI50 [14]: 1.65 µM
TGI [14]: 10.4 µM
GI50 [15]: 3.97 µM
TGI [15]: > 100 µM
GI50 [16]: 7.14 µM
TGI [16]: 59.8 µM
GI50 [17]: 1.74 µM
TGI [17]: 18.2 µM
GI50 [18]: 4.95 µM
TGI [18]: > 100 µM
GI50 [19]: 4.23 µM
TGI [19]: 26.2 µM
GI50 [20]: 2.06 µM
TGI [20]: 56.2 µM
GI50 [21]: 0.466 µM
TGI [21]: 4.01 µM
GI50 [22]: 0.713 µM
TGI [22]: > 100 µM
GI50 [23]: 0.732 µM
TGI [23]: > 100 µM
GI50 [24]: 2.41 µM
TGI [24]: > 100 µM
GI50 [25]: 19.1 µM
TGI [25]: > 100 µM
GI50 [26]: 1.87 µM
TGI [26]: 21.1 µM
GI50 [27]: 23.4 µM
TGI [27]: > 100 µM
GI50 [28]: 0.711 µM
TGI [28]: > 100 µM
GI50 [29]: 1.09 µM
TGI [29]: 37.7 µM
